# Assay results: patent US5545545A, “Lysine-insensitive maize dihydrodipicolinic acid synthase” (priority 1993, dated 1996)
# Read-outs that look alike come from different tables or passages of the source.
# Experiments:
# [1] = test system: maize DHPS (cDNA expression product in AT997dapA- transformants); assay: DHPS activity in crude lysates of AT997dapA- transformants pZM DHPS1 to pZM DHPS5, with or without lysine; assay type: biochemical; details: for % Inhibition: 100 μM lysine
# Method: (§1) Crude lysates from wildtype 71-18dapA^+ cells, AT997dapA^- transformed with pUC13 lacking a cDNA insert, and the five complementing transformant cell lines AT997(pZM DHPS1) to AT997(pZM DHPS5) were assayed for DHPS activity. The transformed cells were grown overnight in M9 medium+100 μM DAP, collected by centrifugation at 5000×g for 10 min and resuspended in 1/10 volume of extraction buffer (100 mM TRIS-HCl, pH 8.0, 100 mM NaCl, 100 mM pyruvate). Cells were placed briefly on ice, disrupted by sonication (60 W, 15 s) and debris removed by centrifugation at 15000×g for 15 min. The supernatant was desalted on a G25 Sephadex column equilibrated with 10 mM TRIS-HCl, pH 8.0 and 1 mM EDTA and used for enzyme assays.
# (§2) The DHPS assay buffer (R. M. Wallsgrove et al., Phytochem., 20, 2651 (1981)) contained 100 mM TRIS-HCl, pH 8.0, 10 mM pyruvate, 1.4 mM aspartate semialdehyde neutralized just prior to use, and 100 μl enzyme in a final volume of 250 μl. Tubes were incubated at 37° C. for 30 min and reactions stopped by addition of 1 ml of 0.22M sodium citrate, 0.55M sodium phosphate, pH 5.0 and 0.25 mg/ml-aminobenzaldehyde. The colored reaction product was allowed to form for 3 hr at 37° C. and samples were centrifuged at 10000 g. Activity units (0.001 OD/min) were determined at 520 nm; standard errors of replicate assays were routinely <2% of the mean.
# [2] = test system: wildtype maize DHPS (pZM DHPS5B) fusion protein expressed in AT997 E. coli; assay: Lysine inhibition of partially purified wildtype maize DHPS fusion protein (FIG. 4); assay type: biochemical
# Method: (§3) AT997 cells (approximately 1 ml packed vol), containing plasmids pZM DHPS5B, pZM DHPS-M1 or pZM DHPS-M2, were extracted by sonication (60 W, 20 s) into 5 ml of ice cold buffer containing (100 mM TRIS-HCl, pH 8.0, 100 mM NaCl, 50 mM pyruvate) and then centrifuged at […] for 10 min. The supernatant was placed in a water bath (60° C.) for 5 min, cooled to 4° C. and centrifuged. The resulting supernatant was desalted on a Sephadex G50 column in 10 mM TRIS-HCl, pH 8.0, and 1 mM EDTA.
# (§4) DHPS activity was determined as described in Example 2 except that the reaction was stopped after 2 min; at longer reaction times, activity was not linear with time. The volume of enzyme was adjusted so that the absorbance at 520 nm increased approximately 0.1 A (=100 activity units) after 2 min for standard control assays. Lysine concentrations were varied from 0.01 mM to 1.0 mM in the presence of constant concentrations of the substrates pyruvate (20 mM) and aspartate semialdehyde (1.4 mM). The average of two or three assays were used to determine enzyme activity values and percent inhibition by lysine.
# [3] = target: T1, altered maize DHPS (pZM DHPS-M4, lysine for glutamic acid at position 108) (Zea mays, UniProt P26259, E162K/R367Q); assay: Lysine sensitivity of DHPS activity of mutant pZM DHPS-M4; assay type: biochemical
# T1 construct: the 380 amino acids of the maize cDNA coding region; beta-galactosidase N-terminal residues (5 aa) (N); vector polylinker (18 aa) (N); translated 5' untranslated region of the cDNA (13 aa) (N); made in house; host or cells: E. coli AT997 dapA- (inferred from the repeated mutagenesis and selection protocol)
# Text: (§5) Additional independently derived mutations in maize DHPS were obtained by repeating the mutagenesis and selection protocol in separate experiments. […] Mutant plasmid pZM DHPS-M3 has a nucleotide change at position #496 (ACA instead of GCA); this change causes substitution of threonine for alanine at the same amino acid position (112) as altered in mutant pZM DHPS-M1. Mutant plasmid pZM DHPS-M4 has a nucleotide change at position #484 (AAA instead of GAA); this change causes substitution of lysine for glutamic acid at amino acid position #108.
# [4] = target: T2, altered maize DHPS (pZM DHPS-M1) fusion protein expressed in AT997 E. coli (Zea mays, UniProt P26259, A166V/R367Q); assay: Lysine inhibition of partially purified mutant DHPS-M1 fusion protein (FIG. 4); assay type: biochemical
# T2 construct: made in house; host or cells: E. coli AT997 dapA- (pZM DHPS-M1), heat-treated, desalted extract
# Method: as §3, §4
# [5] = target: T3, altered maize DHPS (pZM DHPS-M2) fusion protein expressed in AT997 E. coli (Zea mays, UniProt P26259); assay: Lysine inhibition of partially purified mutant DHPS-M2 fusion protein (FIG. 4); assay type: biochemical; details: L-lysine concentrations as high as 1.0 mM
# T3 construct: heat-treated, desalted extract
# Method: as §3, §4
# [6] = target: T4, DHPS from wildtype, nontransformed E. coli strain DH5A (Escherichia coli, UniProt P0A6L2); assay: Lysine inhibition of DHPS from wildtype nontransformed E. coli (FIG. 4); assay type: biochemical; details: lysine concentrations up to 1 mM
# T4 construct: DHPS from wildtype, nontransformed E. coli strain DH5A; endogenous in cells; host or cells: E. coli DH5A
# native Zea mays DHPS [7] = target: T5, native Zea mays DHPS (Zea mays, UniProt P26259); assay: Lysine feedback inhibition of native maize DHPS in vitro; assay type: biochemical; details: native Zea mays DHPS / native plant DHP synthase, read-out: I50 of feedback inhibition by lysine
# T5 construct: host or cells: maize cells (highly purified DHPS)
# T5 sequence (P26259 55-380): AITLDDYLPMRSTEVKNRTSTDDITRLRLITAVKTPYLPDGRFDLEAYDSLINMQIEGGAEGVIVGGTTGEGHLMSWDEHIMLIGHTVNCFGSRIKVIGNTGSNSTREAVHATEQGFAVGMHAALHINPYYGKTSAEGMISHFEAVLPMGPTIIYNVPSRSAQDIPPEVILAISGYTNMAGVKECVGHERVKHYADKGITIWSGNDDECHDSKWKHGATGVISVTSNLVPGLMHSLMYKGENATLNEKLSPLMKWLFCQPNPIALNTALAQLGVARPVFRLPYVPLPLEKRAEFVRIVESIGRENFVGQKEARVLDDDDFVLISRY
# Text: For example, novel plants resulting from the present method contain extractable lysine levels at least about ten times, and preferably, at least about 50 times, e.g., about 50-250 times higher than plants of the same species which contain only native DHPS.
# This difference in lysine sensitivity was an additional indication that the cDNA inserts were from maize and that restoration of DHPS activity in the E. coli mutant was not caused by reversion of the dapA^- allele or due to an interaction with pUC13 plasmid DNA. In preliminary tests of partially purified DHPS from cell line pZM DHPS5, the [I]0.5 value for lysine was determined to be in the range of 20 to 30 μM.
# [8] = target: T6, Purified DHPS from Black Mexican Sweet maize (Zea mays, UniProt P26259); assay: DHPS activity of purified maize DHPS, with or without lysine; assay type: biochemical
# T6 construct: from tissue; host or cells: Black Mexican Sweet maize suspension cultures (endogenous enzyme, purified more than 4000-fold)
# T6 sequence (P26259 55-380): T5 sequence (P26259 55-380)
# Method: as §2
# The putative start of the coding region for maize DHPS was established by comparison of the N-terminus amino acid sequence of SDS-PAGE purified DHPS monomer with the amino acid sequence derived from the nucleotide sequence. DHPS was purified more than 4000-fold with 25% recovery from Black Mexican Sweet maize suspension cultures by the procedure of D. A. Frisch et al., Plant Physiol., 96, 444 (1991). Only one protein band (ca. 130000 Mr) was detected by silver-staining after native polyacrylamide gel electrophoresis (PAGE) and this band corresponded to the position of DHPS activity. […]
# native Zea mays DHPS [9] = target: T5, native Zea mays DHPS; details: highly purified DHPS from maize cells; Frisch et al., Plant Physiol., 96, 444 (1991); read-out: [I]0.5 value for lysine; cited from earlier work
# [10] = target: T7, wildtype E. coli DHPS from 71-18dapA+ (Escherichia coli, UniProt P0A6L2); assay: DHPS activity in crude lysate of wildtype 71-18dapA+ cells, with or without lysine; assay type: biochemical
# T7 construct: Crude lysates from wildtype 71-18dapA; endogenous in cells; host or cells: E. coli 71-18 (dapA+), crude desalted lysate
# Method: as §1, §2
# [11] = target: T8, altered maize DHPS (pZM DHPS-M3, threonine for alanine at position 112) (Zea mays, UniProt P26259, A166T/R367Q); assay: Lysine sensitivity of DHPS activity of mutant pZM DHPS-M3; assay type: biochemical
# T8 construct: the 380 amino acids of the maize cDNA coding region; beta-galactosidase N-terminal residues (5 aa) (N); vector polylinker (18 aa) (N); translated 5' untranslated region of the cDNA (13 aa) (N); made in house; host or cells: E. coli AT997 dapA- (inferred from the repeated mutagenesis and selection protocol)
# Text: as §5
# T2 sequence (P26259 whole entry A166V/R367Q, the tested form may be a part): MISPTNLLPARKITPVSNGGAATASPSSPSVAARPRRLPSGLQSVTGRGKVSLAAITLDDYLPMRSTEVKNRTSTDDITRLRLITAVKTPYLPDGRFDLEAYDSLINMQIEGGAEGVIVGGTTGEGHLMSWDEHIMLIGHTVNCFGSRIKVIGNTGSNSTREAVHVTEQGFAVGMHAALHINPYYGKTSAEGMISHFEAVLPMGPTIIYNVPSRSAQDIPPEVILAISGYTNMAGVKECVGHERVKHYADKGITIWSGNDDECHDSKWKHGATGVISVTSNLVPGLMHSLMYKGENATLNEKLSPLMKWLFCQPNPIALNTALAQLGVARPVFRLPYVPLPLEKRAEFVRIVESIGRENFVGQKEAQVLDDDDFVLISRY
# T7 sequence (P0A6L2 whole entry): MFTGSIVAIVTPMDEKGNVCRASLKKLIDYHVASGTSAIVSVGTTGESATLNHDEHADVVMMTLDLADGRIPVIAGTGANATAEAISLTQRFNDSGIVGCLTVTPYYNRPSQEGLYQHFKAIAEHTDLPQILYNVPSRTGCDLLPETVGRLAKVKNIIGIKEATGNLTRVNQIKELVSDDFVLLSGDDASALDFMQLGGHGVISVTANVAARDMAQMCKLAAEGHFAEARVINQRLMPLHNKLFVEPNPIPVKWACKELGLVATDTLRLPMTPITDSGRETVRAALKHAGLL
# T3 sequence (P26259 whole entry, the tested form may be a part): as the sequence (P26259 whole entry A166V/R367Q, the tested form may be a part) above, with V166A, Q367R counted along it
# T4 sequence (P0A6L2 whole entry): as the sequence (P0A6L2 whole entry) above
# T1 sequence (P26259 whole entry E162K/R367Q): as the sequence (P26259 whole entry A166V/R367Q, the tested form may be a part) above, with E162K, V166A counted along it
# T8 sequence (P26259 whole entry A166T/R367Q): as the sequence (P26259 whole entry A166V/R367Q, the tested form may be a part) above, with V166T counted along it
compound,measurement,setting,value
"NCCCC[C@H](N)C(=O)O [lysine, L-lysine]","Specific Activity, 100 μM Lysine",[1]; AT997dapA- (pZM DHPS1),24 0.001 OD520 /min per milligram
same,% Inhibition,[1]; AT997dapA- (pZM DHPS1),90%
same,"Specific Activity, 100 μM Lysine",[1]; AT997dapA- (pZM DHPS2),15 0.001 OD520 /min per milligram
same,% Inhibition,[1]; AT997dapA- (pZM DHPS2),91%
same,"Specific Activity, 100 μM Lysine",[1]; AT997dapA- (pZM DHPS3),22 0.001 OD520 /min per milligram
same,% Inhibition,[1]; AT997dapA- (pZM DHPS3),88%
same,"Specific Activity, 100 μM Lysine",[1]; AT997dapA- (pZM DHPS4),42 0.001 OD520 /min per milligram
same,% Inhibition,[1]; AT997dapA- (pZM DHPS4),86%
same,"Specific Activity, 100 μM Lysine",[1]; AT997dapA- (pZM DHPS5),27 0.001 OD520 /min per milligram
same,% Inhibition,[1]; AT997dapA- (pZM DHPS5),90%
same,inhibition of wildtype maize DHPS activity,"[2]; 100 μM lysine, E. coli transformants",more than 90%
same,inhibition of DHPS activity by lysine,"[2]; pZM DHPS5B, lysine concentrations as low as 25 μM",significantly inhibited
same,lysine sensitivity of DHPS activity,[3],lysine insensitivity
same,inhibition of DHPS activity by lysine,"[4]; DHPS expressed from SEQ ID NO. 1 in E. coli transformants, 1000 μM lysine",not inhibited
same,reduction in sensitivity to lysine versus native Zea mays DHPS,[4]; altered Zea mays DHPS of SEQ ID NO. 2,more than 400 times
same,"L-lysine level at which altered DHPS is active, relative to native DHPS","[4]; altered maize DHPS of the invention, in vitro",at least 100 fold
same,inhibition of DHPS activity by L-lysine,"[4]; pZM DHPS-M1, L-lysine concentrations as high as 1.0 mM",not inhibited
same,inhibition of DHPS activity by L-lysine,[5],not inhibited
same,inhibition of DHPS activity by lysine,[6],intermediate level of inhibition
same,IC50,native Zea mays DHPS [7],25 µM
same,inhibition at 100 µM,[8]; 100 μM lysine,97%
same,"DHPS activity, 100 μM Lysine",[8]; specific activity not determined (footnote b),8 units of DHPS activity
same,IC50,native Zea mays DHPS [9],23 µM
same,"Specific Activity, 100 μM Lysine",[10]; 71-18dapA+ crude lysate,120 0.001 OD520 /min per milligram
same,inhibition at 100 µM,"[10]; 71-18dapA+, 100 μM lysine",8%
same,lysine sensitivity of DHPS activity,[11],lysine insensitivity
